Source: ChEMBL document CHEMBL5236577, “Targeting Aggrecanases for Osteoarthritis Therapy: From Zinc Chelation to Exosite Inhibition” (J Med Chem, 2022)

Assays:
[1] = molecular target: T1, A disintegrin and metalloproteinase with thrombospondin motifs 4 (Homo sapiens, UniProt O75173); test: Inhibition of recombinant human ADAMTS-4
T1 sequence (O75173 whole entry): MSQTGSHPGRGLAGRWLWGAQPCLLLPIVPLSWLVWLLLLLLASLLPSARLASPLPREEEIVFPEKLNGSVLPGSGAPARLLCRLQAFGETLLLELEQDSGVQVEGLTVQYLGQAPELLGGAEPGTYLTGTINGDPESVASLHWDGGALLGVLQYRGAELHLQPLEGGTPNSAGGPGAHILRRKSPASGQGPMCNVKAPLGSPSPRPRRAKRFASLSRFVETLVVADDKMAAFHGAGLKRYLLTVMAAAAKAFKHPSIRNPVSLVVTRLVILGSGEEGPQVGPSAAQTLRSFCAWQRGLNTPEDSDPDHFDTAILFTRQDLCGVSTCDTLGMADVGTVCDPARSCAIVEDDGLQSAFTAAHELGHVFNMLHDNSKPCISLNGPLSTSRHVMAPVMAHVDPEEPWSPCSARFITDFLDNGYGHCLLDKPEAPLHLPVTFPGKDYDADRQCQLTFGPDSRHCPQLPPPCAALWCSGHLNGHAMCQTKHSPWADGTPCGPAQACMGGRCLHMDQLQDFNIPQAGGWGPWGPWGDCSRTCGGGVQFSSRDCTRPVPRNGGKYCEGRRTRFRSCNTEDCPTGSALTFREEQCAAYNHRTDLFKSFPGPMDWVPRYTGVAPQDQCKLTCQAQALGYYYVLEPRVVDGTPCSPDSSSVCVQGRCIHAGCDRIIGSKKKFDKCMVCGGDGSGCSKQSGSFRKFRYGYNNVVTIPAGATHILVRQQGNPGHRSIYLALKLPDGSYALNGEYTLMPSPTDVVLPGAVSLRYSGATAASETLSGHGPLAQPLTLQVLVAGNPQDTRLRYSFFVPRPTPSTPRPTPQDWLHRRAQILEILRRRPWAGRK

[2] = molecular target: T2, A disintegrin and metalloproteinase with thrombospondin motifs 5 (Homo sapiens, UniProt Q9UNA0); test: Inhibition of recombinant human ADAMTS-5
T2 sequence (Q9UNA0 whole entry): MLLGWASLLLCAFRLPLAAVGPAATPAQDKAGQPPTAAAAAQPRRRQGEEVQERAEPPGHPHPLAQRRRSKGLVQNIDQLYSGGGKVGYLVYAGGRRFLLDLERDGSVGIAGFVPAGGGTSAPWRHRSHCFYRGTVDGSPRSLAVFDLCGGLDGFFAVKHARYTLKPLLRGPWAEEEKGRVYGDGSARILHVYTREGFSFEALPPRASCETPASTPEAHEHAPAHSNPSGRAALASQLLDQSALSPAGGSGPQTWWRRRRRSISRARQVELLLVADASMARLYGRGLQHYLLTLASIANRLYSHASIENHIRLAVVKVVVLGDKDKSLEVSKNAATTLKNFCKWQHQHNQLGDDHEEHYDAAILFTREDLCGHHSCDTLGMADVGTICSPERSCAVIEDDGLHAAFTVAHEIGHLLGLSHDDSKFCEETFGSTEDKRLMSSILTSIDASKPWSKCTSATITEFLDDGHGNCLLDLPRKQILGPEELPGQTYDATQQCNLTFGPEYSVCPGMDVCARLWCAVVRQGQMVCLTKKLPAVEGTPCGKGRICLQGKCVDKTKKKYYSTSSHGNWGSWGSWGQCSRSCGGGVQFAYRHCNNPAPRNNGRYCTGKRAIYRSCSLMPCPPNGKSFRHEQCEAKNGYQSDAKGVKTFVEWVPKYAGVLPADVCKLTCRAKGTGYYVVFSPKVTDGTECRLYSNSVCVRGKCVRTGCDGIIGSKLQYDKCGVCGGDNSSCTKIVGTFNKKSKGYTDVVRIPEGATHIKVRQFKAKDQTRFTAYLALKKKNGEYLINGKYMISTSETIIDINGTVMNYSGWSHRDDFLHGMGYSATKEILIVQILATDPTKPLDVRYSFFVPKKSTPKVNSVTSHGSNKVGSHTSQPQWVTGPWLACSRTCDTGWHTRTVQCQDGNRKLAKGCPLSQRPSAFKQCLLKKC

[3] = molecular target: 72 kDa type IV collagenase (Homo sapiens, UniProt P08253); test: Inhibition of recombinant human MMP2
72 kDa type IV collagenase, sequence (P08253 whole entry): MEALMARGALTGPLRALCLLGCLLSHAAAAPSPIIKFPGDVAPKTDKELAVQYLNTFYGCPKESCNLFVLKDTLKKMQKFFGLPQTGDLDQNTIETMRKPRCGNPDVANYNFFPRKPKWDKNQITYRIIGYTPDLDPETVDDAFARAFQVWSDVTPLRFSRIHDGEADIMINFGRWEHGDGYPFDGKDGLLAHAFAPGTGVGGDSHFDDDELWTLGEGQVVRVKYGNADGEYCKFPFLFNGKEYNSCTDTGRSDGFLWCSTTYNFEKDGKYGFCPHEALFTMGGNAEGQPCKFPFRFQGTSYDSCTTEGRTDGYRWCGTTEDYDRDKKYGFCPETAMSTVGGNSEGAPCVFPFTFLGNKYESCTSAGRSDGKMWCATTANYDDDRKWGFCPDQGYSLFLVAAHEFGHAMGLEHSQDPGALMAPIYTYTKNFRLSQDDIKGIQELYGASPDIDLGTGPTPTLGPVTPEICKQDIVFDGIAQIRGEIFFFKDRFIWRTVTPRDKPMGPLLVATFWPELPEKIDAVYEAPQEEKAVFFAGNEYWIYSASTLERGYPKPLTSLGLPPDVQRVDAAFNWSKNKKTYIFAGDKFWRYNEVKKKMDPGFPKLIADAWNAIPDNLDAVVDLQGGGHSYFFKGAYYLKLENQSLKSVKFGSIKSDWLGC

Matrilysin = molecular target: T3, Matrilysin (Homo sapiens, UniProt P09237); test: Inhibition of recombinant human MMP7
T3 sequence (P09237 whole entry): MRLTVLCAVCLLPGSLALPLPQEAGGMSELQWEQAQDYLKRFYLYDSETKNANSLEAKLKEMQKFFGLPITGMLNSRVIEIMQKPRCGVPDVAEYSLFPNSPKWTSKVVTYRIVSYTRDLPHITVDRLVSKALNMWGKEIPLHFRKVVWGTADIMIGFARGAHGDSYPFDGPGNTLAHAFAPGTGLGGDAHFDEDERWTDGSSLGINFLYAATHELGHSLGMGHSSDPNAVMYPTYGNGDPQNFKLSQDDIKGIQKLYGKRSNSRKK

Collagenase 3 = Collagenase 3 (Homo sapiens, UniProt P45452); test: Inhibition of recombinant human MMP13

O=c1cc(-c2ccc(O)c(O)c2)oc2cc(O)cc(O)c12 [LUTEOLIN]
IC50 [1]: 9.8 µM | IC50 [2]: 12.2 µM | IC50 [3]: 40.9 µM | IC50 (Matrilysin): 68.2 µM | IC50 (Collagenase 3): 18.3 µM
